This note sets out measurements from ChEMBL document CHEMBL1201862, “PubChem BioAssay data set” (2004).

Among the test systems are OVCAR-4; EKVX; UACC-257; M14; LOX IMVI; SNB-19; SW-620; NCI-H460; TK-10; HCT-116; SNB-75; PC-3; SK-MEL-28; SR; SK-MEL-2; HL-60; COLO 205; NCI-H522; MCF7; MDA-MB-435.
Common to all, as to test: growth of human tumour cells (NCI), 48 h

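Growth conditions: 96-well plates. Treatment: test compound, 48 hours, 5 concentrations. Analysis: linear interpolation between bracketing concentrations; unreached endpoints set to highest concentration. GI50: concentration for 50% inhibition of growth.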 Activity calls are given as the source filed them. No stated cut-off is given here; in the data, active = GI50 up to about 1.1 µM and inactive = higher. Where only a bound is given, the exact number is not on record here.

Regarding `CCOC(=S)SC/C(=N\OC(C)(C)OC)c1ccccc1`, the GI50 was 69 µM (inactive) with OVCAR-4; 48.9 µM (inactive) in the assay on EKVX; 35.3 µM (inactive) with UACC-257; 29.1 µM (inactive) with M14; 16.3 µM (inactive) in the assay with LOX IMVI; > 100 µM (inactive) in the assay on SNB-19. Further, the GI50 in the assay with SW-620 is 33.2 µM (inactive); in the assay on NCI-H460, 35 µM (inactive); in the assay on TK-10, 46.6 µM (inactive); in the assay on HCT-116, 24.9 µM (inactive); in the assay with SNB-75, 0.453 µM (active); with PC-3 it was 59.4 µM (inactive). For the same compound, the GI50 is 47.3 µM (inactive) with SK-MEL-28; 14.5 µM (inactive) in the assay on SR; 20.7 µM (inactive) in the assay on SK-MEL-2; 20.2 µM (inactive) in the assay with HL-60; 42.8 µM (inactive) in the assay on COLO 205; 24.1 µM (inactive) in the assay on NCI-H522. The GI50 in the assay with MCF7 was 29.2 µM (inactive); with MDA-MB-435, 25 µM (inactive).

For `CCOC(=O)CC[C@H](N)C(=O)N[C@@H](Cc1ccc(N(CCCl)CCCl)cc1)C(=O)OCC`, the GI50 in the assay with OVCAR-4 was 0.565 µM (active); with EKVX, 2.3 µM (inactive); in the assay on UACC-257, 1.5 µM (inactive); with M14 it was 0.261 µM (active); with LOX IMVI it was 0.184 µM (active); in the assay on SNB-19, 4.69 µM (inactive). The GI50 with SW-620 is 0.977 µM (active); with NCI-H460, 0.0364 µM (active); in the assay with TK-10 it was 1.47 µM (inactive); with HCT-116, 0.851 µM (active); with SNB-75, 1.22 µM (inactive); with PC-3, 1.29 µM (inactive). For the same compound, the GI50 in the assay with SK-MEL-28 was 0.869 µM (active); with SR, < 0.0201 µM (active); in the assay on SK-MEL-2, 2.69 µM (inactive); in the assay on HL-60, 0.0705 µM (active); in the assay on COLO 205 it was 0.938 µM (active); in the assay with NCI-H522, 1.12 µM (active). The GI50 in the assay with MCF7 is 0.483 µM (active); in the assay on MDA-MB-435, 1.39 µM (inactive).

On to `COc1ccc(C2CC(c3c(C)nn(-c4ccccc4)c3-c3ccc(C)cc3O)=NN2c2ccccc2)cc1` (stereo unspecified), for which the GI50 in the assay with OVCAR-4 was > 45.7 µM (inactive); with EKVX it was > 33.5 µM (inactive); in the assay with UACC-257, 67.3 µM (inactive); with M14 it was 14.2 µM (inactive); with LOX IMVI, > 30.1 µM (inactive); in the assay with SNB-19, > 29 µM (inactive). Moreover, the GI50 in the assay with SW-620 is 20.5 µM (inactive); in the assay on NCI-H460, 3.42 µM (inactive); in the assay with TK-10, > 100 µM (inactive); in the assay on HCT-116, 12.7 µM (inactive); in the assay with SNB-75 it was 5.04 µM (inactive); in the assay on PC-3, 3.78 µM (inactive). The GI50 with SK-MEL-28 is > 89.3 µM (inactive); with SR, 13.3 µM (inactive); with SK-MEL-2, 14.1 µM (inactive); in the assay on HL-60, 9.27 µM (inactive); in the assay with COLO 205 it was 12.7 µM (inactive); in the assay with NCI-H522 it was 24.8 µM (inactive). The figures for the GI50 in the assay with MCF7 and in the assay on MDA-MB-435 were 8.07 µM (inactive) and 15 µM (inactive), respectively.

For `CCn1c(-c2ccc(OC(C)=O)cc2)c(C)c2cc(OC(C)=O)ccc21` [ZINDOXIFENE], the GI50 with OVCAR-4 was 18.1 µM (inactive); in the assay on EKVX, 17.9 µM (inactive); in the assay on UACC-257 it was 27 µM (inactive); in the assay with M14, 18.1 µM (inactive); with LOX IMVI, 11.9 µM (inactive); in the assay with SNB-19, 31 µM (inactive). Besides, the GI50 with SW-620 was 23.4 µM (inactive); with NCI-H460 it was 6.04 µM (inactive); in the assay on TK-10 it was 20 µM (inactive); in the assay on HCT-116, 6.84 µM (inactive); with SNB-75, 16.5 µM (inactive); in the assay with PC-3, 13.7 µM (inactive). Besides, the GI50 in the assay with SK-MEL-28 is 16.5 µM (inactive); with SR, 5.27 µM (inactive); with SK-MEL-2 it was 18.5 µM (inactive); in the assay with HL-60, 11 µM (inactive); with COLO 205, 21.7 µM (inactive); in the assay with NCI-H522, 17.4 µM (inactive). Besides, the results for the GI50 in the assay on MCF7 and with MDA-MB-435 were 18 µM (inactive) and 12.5 µM (inactive), respectively.

Regarding `CC1(C)CC23CC(C)(C)c4cccc(c42)OCc2ccc4ccc5ccc(nc5c4n2)COc2cccc1c23`, the GI50 in the assay on OVCAR-4 is > 50 µM (inactive); with EKVX, > 50 µM (inactive); in the assay on UACC-257, > 50 µM (inactive); in the assay with M14, > 50 µM (inactive); with LOX IMVI, > 50 µM (inactive); in the assay on SNB-19, > 5 µM (inactive). The GI50 with SW-620, with NCI-H460, in the assay on TK-10, in the assay on HCT-116, with SNB-75 and in the assay with PC-3 was > 50 µM (inactive) each time. For the same compound, the GI50 in the assay on SK-MEL-28, in the assay with SR, in the assay with SK-MEL-2, in the assay with HL-60, in the assay with COLO 205 and in the assay with NCI-H522 was > 50 µM (inactive) each time. The GI50 in the assay with MCF7 and in the assay with MDA-MB-435 was > 50 µM (inactive) throughout.

`CC(=O)c1c2n(n(-c3ccccc3)c1=O)C(=O)c1nccnc1-2`: the GI50 with OVCAR-4, in the assay on EKVX, in the assay with UACC-257, with M14, in the assay on LOX IMVI and with SNB-19 was > 100 µM (inactive) each time. Also, the GI50 with SW-620 was > 100 µM (inactive); in the assay with NCI-H460, > 100 µM (inactive); in the assay with HCT-116, > 100 µM (inactive); in the assay on SNB-75, 54.1 µM (inactive); in the assay on PC-3, > 100 µM (inactive); with SK-MEL-28 it was > 100 µM (inactive). The GI50 in the assay on SR, in the assay on SK-MEL-2, in the assay with HL-60, with COLO 205, in the assay with NCI-H522 and in the assay with MCF7 was > 100 µM (inactive) throughout. The GI50 in the assay on MDA-MB-435 was > 100 µM (inactive).

With `C=C(C)[C@H]1C2=CC(C)=C(O2)[C@@H](O[C@@H]2c3oc(cc3C)[C@H](C(=C)C)[C@H]3C=C(CC[C@H]2C(=C)C)C(=O)O3)[C@H](C(=C)C)CCC2=C[C@H]1OC2=O`, the GI50 in the assay on OVCAR-4, in the assay on EKVX, with UACC-257, in the assay on M14, in the assay with LOX IMVI and in the assay on SNB-19 was > 100 µM (inactive) throughout. In addition, the GI50 in the assay with SW-620, in the assay on NCI-H460, with TK-10, with HCT-116, with SNB-75 and in the assay with PC-3 was > 100 µM (inactive) each time. Also, the GI50 in the assay with SK-MEL-28, in the assay on SR, in the assay on SK-MEL-2, in the assay with HL-60, in the assay with COLO 205 and with NCI-H522 was > 100 µM (inactive) in each case. The GI50 with MCF7 and in the assay with MDA-MB-435 was > 100 µM (inactive) in each case.

As for `COc1ccc(/C=C2\N=C(N3CCOCC3)NC2=O)cc1`, the GI50 with OVCAR-4, in the assay on EKVX, in the assay on UACC-257, with M14, in the assay with LOX IMVI and in the assay with SNB-19 was > 100 µM (inactive) in each case. For the same compound, the GI50 in the assay with SW-620 is > 100 µM (inactive); in the assay on TK-10, > 100 µM (inactive); in the assay with HCT-116, > 100 µM (inactive); with SNB-75 it was 58.3 µM (inactive); in the assay with PC-3 it was > 100 µM (inactive); in the assay on SK-MEL-28, > 100 µM (inactive). Also, the GI50 with SR, with SK-MEL-2, in the assay with HL-60, with COLO 205, with NCI-H522 and in the assay with MCF7 was > 100 µM (inactive) each time. The GI50 with MDA-MB-435 was > 100 µM (inactive).

Turning to `OC1c2ccccc2CCC1C(O)(C(F)(F)F)C(F)(F)F` (stereo unspecified), the GI50 in the assay with OVCAR-4, in the assay on EKVX, in the assay on M14, in the assay on LOX IMVI, in the assay on SNB-19 and in the assay with SW-620 was > 100 µM (inactive) each time. For the same compound, the GI50 in the assay on NCI-H460 was > 100 µM (inactive); with TK-10 it was > 100 µM (inactive); with HCT-116 it was > 100 µM (inactive); in the assay with SNB-75, 45.8 µM (inactive); in the assay on PC-3, > 100 µM (inactive); in the assay with SK-MEL-28 it was > 100 µM (inactive). Also, the GI50 was > 100 µM (inactive) with SR; > 100 µM (inactive) with SK-MEL-2; > 100 µM (inactive) in the assay with HL-60; > 100 µM (inactive) in the assay on COLO 205; > 100 µM (inactive) in the assay on NCI-H522; 46.3 µM (inactive) with MCF7. Also, the GI50 with MDA-MB-435 was > 100 µM (inactive).

With `O=[N+]([O-])c1ccc(Cl)cc1C1ON=C(c2ccccc2)N1C12CC3CC(CC(C3)C1)C2` (stereo unspecified), the GI50 is > 100 µM (inactive) in the assay on OVCAR-4; > 100 µM (inactive) in the assay on EKVX; > 100 µM (inactive) in the assay with UACC-257; > 100 µM (inactive) in the assay on M14; 57.5 µM (inactive) in the assay with LOX IMVI; > 100 µM (inactive) in the assay with SNB-19. Besides, the GI50 is > 100 µM (inactive) with NCI-H460; > 100 µM (inactive) in the assay on TK-10; 86.9 µM (inactive) in the assay on HCT-116; 0.0245 µM (active) with SNB-75; > 100 µM (inactive) with PC-3; > 100 µM (inactive) in the assay with SK-MEL-28. The GI50 with SR was > 100 µM (inactive); with SK-MEL-2, > 100 µM (inactive); in the assay on HL-60, 73.6 µM (inactive); in the assay with COLO 205, > 100 µM (inactive); in the assay on NCI-H522, > 100 µM (inactive); with MCF7, > 100 µM (inactive). Moreover, the GI50 in the assay with MDA-MB-435 was > 100 µM (inactive).
